From patent publication US8211895B2, “Capped pyrazinoylguanidine sodium channel blockers” (Parion Sciences, Inc., priority 2005, dated 2012)

System: not given
Test: not given
Conditions: not given

| melting point | SMILES |
| --- | --- |
| 98 to 100 °C (dec.) | NC(=O)CN(CCOc1ccc(CCCCNC(N)=NC(=O)c2nc(Cl)c(N)nc2N)cc1)CC(N)=O [ALB 28062, 2-{Carbamoylmethyl-[2-(4-{4-[N′-(3,5-diamino-6-chloropyrazine-2-carbonyl)-guanidino]butyl}phenoxy)ethyl]amino}acetamide] |
| 84 to 88 °C | COC(=O)CC(CC(=O)OC)NCCOc1ccc(CCCCNC(N)=NC(=O)c2nc(Cl)c(N)nc2N)cc1 [ALB 28588, 3-[2-(4-{4-[N′-(3,5-Diamino-6-chloropyrazine-2-carbonyl)guanidino]butyl}phenoxy)ethylamino]pentanedioic acid dimethyl ester] |
| 92 to 94 °C (dec.) | NC(=O)CNCCOc1ccc(CCCCNC(N)=NC(=O)c2nc(Cl)c(N)nc2N)cc1 [ALB 28683, 2-[2-(4-{4-[N′-(3,5-Diamino-6-chloropyrazine-2-carbonyl)guanidino]butyl}-phenoxy)ethylamino]acetamide] |
| 110 to 112 °C (dec.) | NC(=NC(=O)c1nc(Cl)c(N)nc1N)NCCCCc1ccc(OCCNCC(=O)O)cc1 [ALB 28897, [2-(4-{4-[N′-(3,5-Diamino-6-chloropyrazine-2-carbonyl)guanidino]butyl}-phenoxy)ethylamino]acetic acid] |

System: airway epithelial sodium currents in canine bronchial epithelia (ENaC)
Test: In vitro measure of sodium channel blocking activity (short circuit current, Ussing chambers)
Type: cell-based
Conditions: potency in canine bronchial epithelia, reported as fold-enhancement relative to amiloride
Experimental: In Vitro Measure of Sodium Channel Blocking Activity and Reversibility One assay used to assess mechanism of action and/or potency of the compounds of the present invention involves the determination of lumenal drug inhibition of airway epithelial sodium currents measured under short circuit current (ISC) using airway epithelial monolayers mounted in Ussing chambers. Cells obtained from freshly excised human, dog, sheep or rodent airways are seeded onto porous 0.4 micron Snapwell™ Inserts (CoStar), cultured at air-liquid interface (ALI) conditions in hormonally defined media, and assayed for sodium transport activity (ISC) while bathed in Krebs Bicarbonate Ringer (KBR) in Using chambers. All test drug additions are to the lumenal bath with half-log dose addition protocols (from 1×10^−11 M to 3×10^−5 M), and the cumulative change in ISC (inhibition) recorded. All drugs are prepared in dimethyl sulfoxide as stock solutions at a concentration of 1×10^−2 M and stored at −20° C. Eight preparations are typically run in parallel; two preparations per run incorporate amiloride and/or benzamil as positive controls. After the maximal concentration ([…]) is administered, the lumenal bath is exchanged three times with fresh drug-free KBR solution, and the resultant ISC measured after each wash for approximately 5 minutes in duration. Reversibility is defined as the percent return to the baseline value for sodium current after the third wash. All data from the voltage clamps are collected via a computer interface and analyzed off-line. Dose-effect relationships for all compounds are considered and analyzed by the Prism 3.0 program. IC50 values, maximal effective concentrations, and reversibility are calculated and compared to amiloride and benzamil as positive controls. […] The results for the compounds of the present invention are reported as fold-enhancement values relative to amiloride.

| SMILES | Fold Amiloride |
| --- | --- |
| N=C(NCCCCc1ccc(OCCN(CC(N)=O)CC(N)=O)cc1)NC(=O)c1nc(Cl)c(N)nc1N [Compound 1] | 77 |
| N=C(NCCCCc1ccc(OCCN(CC(=O)O)CC(=O)O)cc1)NC(=O)c1nc(Cl)c(N)nc1N [Compound 2] | 16 |
| N=C(NCCCCc1ccc(OCCNCC(N)=O)cc1)NC(=O)c1nc(Cl)c(N)nc1N [Compound 3] | 10 |
| COC(=O)CC(CC(=O)OC)NCCOc1ccc(CCCCNC(=N)NC(=O)c2nc(Cl)c(N)nc2N)cc1 [Compound 4] | 81 |
